# According to patent US20080269121A1, “Methods and Compositions Involving A1c Subunit of L-Type Calcium Channels in Smooth Muscle Cells” (The Board of Regents of the University of Texas System, priority 2005, published 2008):
# Entries after “also recorded” stand apart in the source; their conditions may differ.
# How the values were obtained:
# [1] = test system: α1C subunit of L-type Ca^2+ channels; assay: α1C protein expression (Western immunoblotting); type: cell-based, human
# Excerpt: (§1) Primary cultures of HCCSMC: Human tissue was obtained from the descending and sigmoid colons with approval of the University of Texas Medical Branch Institutional Review Board from disease free margins of resected segments from patients undergoing surgery for colon cancer. The circular muscle layer was separated from the taenia coli and lamina propria with a tissue slicer. The circular muscle layer was collected in ice-cold HEPES buffer (in mM: 120 NaCl, 2.6 KH2S04, 4 KCl, 2 CaCl2, 0.6 MgCl2, 25 HEPES, 14 glucose and 2.1% essential amino acid mixture, pH 7.4). Two successive digestions with papain and collagenase, as described previously by Shi and Sarna, were used to disperse smooth muscle cells. The cells were cultured in RPMI 1640 (Gibco/Invitrogen, Carlsbad, Calif.) supplemented with 10% fetal bovine serum in the presence of 100 units/mL of penicillin G, 100 μg/mL of streptomycin sulfate and 0.25 μg/mL of amphoteracin B. The culture medium was changed every three days. Cells in passages 3 to 5 were used in all experiments. All cells were cultured in serum-free medium for at least 15 h prior to experiments to eliminate the possible effects of growth factors. […] The cultures of colonic smooth muscle cells retain their contractile phenotype. Each experiment used cells or muscle strips from at least three different subjects.
# Western immunoblotting. Each lane is loaded with 10 μg protein and size-separated on a 10% SDS polyacrylamide gel. After blotting, the nitrocellulose membranes are blocked with 10% non-fat dried milk at 4° C. overnight. The blots are incubated with appropriate dilution of the antibody at 4° C. overnight and appropriate dilution of designated secondary antibody at room temperature for 1 h. β-actin is used as internal control.
# α1C1b promoter = α1C1b promoter luciferase reporter activity in HCCSMC; type: cell-based, human
# Method: Transient cell transfections and luciferase activity. FuGENE 6 (Roche, Mannheim, Germany) is used to transfect luciferase-expressing pGL2 constructs in HCCSMC. The cells in passage 4 are seeded into 12-well plates (Costar, Acton, Mass.) and grown to 70% to 80% confluency. Transfections are carried out by incubation of cells in each well with 1.5 μl of FuGENE 6, 0.5 μg of pGL2 construct, and 0.125 μg of pSEAP2 Control Vector (BD Biosciences Clontech, Palo Alto, Calif.) for 24 h as per manufacturer's instructions. The pSEAP2 Control Vector is co-transfected for normalization of data. The transfected cells were treated with stimulus or medium control and harvested after 24 hours. Twenty μl of the supernatant of the cell lysates are taken for the measurement of luciferase activity by a luminometer (Promega, Madison, Wis.). The SEAP activity is measured with a Clontech SEAP detection kit by following the manufacturer's instructions.
# Promoter constructs, 5′-deletions, and site-directed mutagenesis. The promoter constructs of hα1c1b are prepared by PCR amplification of human genomic DNA (Roche, Indianapolis, Ind.) and digested partially with Hind III (Promega, Madison, Wis.) using the FailSafe PCR kit (Epicentre, Madison, Wis.). The PCR product is subcloned into pDrive Cloning Vector with the PCR Cloning^plus kit (Qiagen, Valencia, Calif.) and SURE 2 supercompetent cells (Stratagene, La Jolla, Calif.) and subsequently transferred to the luciferase expression plasmid pGL2-Basic Vector (Promega, Madison, Wis.). The deletion constructs are made using the full length promoter construct as a template in PCR reactions. The same methods and kits are used to subclone the sequenced PCR products into the pDrive and pGL2 vector. The site-directed mutagenesis is carried out using QuikChange® II XL Site-Directed Mutagenesis Kit from Stratagene (La Jolla, Calif.), as per manufacturer's instructions.
# ERK ½ = assay: MAP kinase phosphorylation: ERK ½; type: cell-based
# cAMP = cAMP levels in HCCSMC; type: cell-based, human
# Excerpt: as §1
# JNK/SAPK = assay: MAP kinase phosphorylation: JNK/SAPK; type: cell-based
# [2] = test system: α1C subunit of L-type Ca^2+ channels; assay: Q-PCR of α1C mRNA expression in HCCSMC; type: cell-based, human
# Excerpt: as §1
# Total RNA was extracted from cells using the Qiagen RNeasy kit (Qiagen, Valencia, Calif.) by following the manufacturer's protocol. The cDNAs were made using the Superscript First-Strand Synthesis System (Invitrogen, Carlsbad, Calif.).
# Quantitive real-time-polymerase chain reaction (Q-PCR). Q-PCR assay is employed to determine gene expression using TaqMan technology on Applied Biosystems 7000 sequence detection system (UTMB Real-time PCR Core Facility). Applied Biosystems Assays-By-Design containing a 20× assay mix of primers and TaqMan MGB probes (FAMTM dye-labeled) are used for a target gene and the endogenous control, human 18s RNA. These assays were designed using primers that span exon-exon junctions so as not to detect genomic DNA. All primer and probe sequences were searched against the Celera data base to confirm specificity. The primer and probe sequences used were as follows: human Cav1.2 channel oα1C intermediate form (Cav1.2b) probe spanning exon 1b and exon 2, […] (SEQ ID NO:4): forward primer, […] (SEQ ID NO:5): reverse primer, […] (SEQ ID NO:6). Human Cav1.2 channel α1C long form (Cav1.2a) probe spanning exon 1a and exon 2: […] (SEQ ID NO:7): forward primer, […] (SEQ ID NO:8): reverse primer. […] (SEQ ID NO:6).
substance,measurement,setting,value
vasoactive intestinal polypeptide [VIP],increase of α1C protein,[1]; adult human colonic circular smooth muscle cells,about 100%
same,effect on TNFα suppression of α1C protein,"[1]; muscle strip tissue, FIG. 14 top",minimized
same,α1C1b promoter reporter (luciferase) activity,α1C1b promoter; substance by itself,enhanced in a concentration-dependent manner; also recorded: concentration-dependently increased; also recorded: enhanced promoter activity in normal cells
same,effect on suppression of α1C1b promoter activity by TNFα,α1C1b promoter; with TNFα,significantly blocked this reduction; also recorded: partially blocked the suppression
same,phosphorylation of ERK ½,ERK ½,time-dependently dephosphorylated
same,duration of elevated cAMP levels,cAMP,at least 24 h
same,intercellular cAMP levels,cAMP; 24 h treatment,elevated throughout the 24 h period
same,phosphorylation of JNK/SAPK,JNK/SAPK,time-dependently dephosphorylated
same,induction of α1C mRNA expression,[2]; HCCSMC,induced expression; also recorded: enhanced the mRNA of α1C
same,duration of α1C mRNA transcription and translation after treatment,"[2]; HCCSMC, FIG. 3",at least 24 h
same,increase of α1C mRNA,"[2]; at 6 h, adult human colonic circular smooth muscle cells",about 50%
